How the values were obtained:
[1] = tested on: normal human keratinocytes; assay: Comet assay with formamidopyrimidine DNA glycosylase (FPG) to detect oxidized DNA-bases after light exposure; assay type: cell-based; settings: UVA, IR and visible light; creatine included in the compositions
Description: (§1) Experiments were carried out using the protocol discussed in Chamayou-Robert et al. Photodermatol Photoimmunol Photomed. 2021; 00:1-7. Briefly, experiments were performed on normal human keratinocytes. Cells were exposed to either UVB (280-315 nm), UVA (315-400 nm), visible light, blue light (400-500 nm), or infra-red (760 nm-1 mm) for a time to induce DNA damage. Cells were then treated with the compositions indicated in FIGS. 3(a), 3(b) and 4(a), 4(b) and 4(c), respectively and DNA damage was analyzed by using the comet assay (Wischermann et al. Mutat Res. 2007; 630:122-128; Jean et al. Photochem Photobiol. 2007; 74 (3): 417-423; Azqueta et al. Mutagenesis. 2013; 28:271-277; Chamayou-Robert et al. Photoderm Photoimmun. 2021; 00:1-7) with the use of specific enzymes, formamidopyrimidine DNA glycosylase (FPG) or T4 endonuclease V in order to detect oxidized DNA-bases and cyclobutane pyrimidine dimers (CPD) respectively.
(§2) Compositions comprising creatine in an amount of 0.5% w/w, Micrococcus Lysate in an amount of 0.0005% w/w and Arabidopsis Thaliana extract in an amount of 0.0005% w/w were tested in this example.

[2] = tested on: normal human keratinocytes; assay: Comet assay with T4 endonuclease V to detect cyclobutane pyrimidine dimers (CPD) after light exposure; assay type: cell-based; settings: UVB and visible light; creatine included in the compositions
Description: as §1, §2

SMILES: CN(CC(=O)O)C(=N)N [creatine, Creatine]
- effect on the DNA repair of oxidative DNA damage induced by light [1]: boosting effect
- effect on the DNA repair of CPD damage induced by light [2]: boosting effect

Source: US20240398885A1, “FULL LIGHT REPAIR” (Coty Inc., priority 2021, published 2024)
